Measurements as given in patent publication US6472526B1, “Imidazole derivatives having an inhibitory activity for farnesyl transferase and process for preparation thereof” (LG Chemical Ltd., priority 1997, dated 2002).
pIC50: −log10 of the molar value.

Legend:
[1] = molecular target: T1, Ras farnesyl transferase (Rattus norvegicus, UniProt Q02293+Q04631); test: In vivo (cellular) inhibitory activity for Ras farnesyl transferase, Rat2 cell line which expresses C-Harvey-Ras protein; type: cell-based; settings: Rat2 cell line expressing C-Harvey-Ras; concentration inhibiting 50% of farnesyl bonding of Ras protein; read-out: H-Ras CIC50
T1 construct: endogenous in cells; host or cells: Rat2 fibroblasts transformed with H-Ras or with an H-Ras/K-Ras C-terminus fusion
Summary of the method: (§1)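 Transformed Rat2 fibroblasts (H-Ras or H-Ras/K-Ras polybasic-tail fusion) treated with compound in 1% DMSO; after 4 h labelled with [35S]methionine 150 μCi/ml for 20 h. Lysates immunoprecipitated with anti-Ras Y13-259, resolved by 13.5% SDS-PAGE and autoradiography; CIC50 = concentration inhibiting 50% of Ras farnesylation from band intensities.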

[2] = molecular target: T2, Ras farnesyl transferase (Homo sapiens, UniProt P49354+P49356); test: In vitro inhibitory activity for Ras farnesyl transferase, K-Ras substrate; type: biochemical; settings: in vitro farnesyl transferase assay, K-Ras; read-out: K-Ras IC50
T2 construct: made in house

[3] = molecular target: T1, Ras farnesyl transferase; test: In vivo (cellular) inhibitory activity for Ras farnesyl transferase, Rat2 cell line transformed with fused protein of H-Ras substituted with polybasic lysine domain at C-terminus of K-Ras; type: cell-based; settings: Rat2 cell line transformed with H-Ras fused with polybasic lysine domain of K-Ras C-terminus; concentration inhibiting 50% of farnesyl bonding; read-out: K-Ras CIC50
Summary of the method: as §1

[4] = molecular target: T2, Ras farnesyl transferase; test: In vitro inhibitory activity for Ras farnesyl transferase, H-Ras substrate; type: biochemical; settings: recombinant farnesyl transferase 4.5 nM, Ras substrate protein 1.5 μM, tritium-farnesylpyrophosphate 0.15 μM, 30 minutes at 37° C.; read-out: H-Ras IC50

| Structure (SMILES) | pIC50 [1] | pIC50 [2] | pIC50 [3] | pIC50 [4] |
| --- | --- | --- | --- | --- |
| COc1cccc(C(=O)c2cn(Cc3c[nH]cn3)cc2-c2cccc3ccccc23)c1 [Compound 53] | 4.30 to 6.00 | 5.00 to 7.00 | 4.00 to 5.00 | 6.52 |
| COc1ccc(C(=O)c2cn(Cc3c[nH]cn3)cc2-c2cccc3ccccc23)cc1 [Compound 54] | 4.30 to 6.00 | 5.00 to 7.00 | 4.00 to 5.00 | 6.41 |
| O=C(c1ccccc1Cl)c1cn(Cc2c[nH]cn2)cc1-c1cccc2ccccc12 [Compound 55] | 4.30 to 6.00 | 5.00 to 7.00 | 4.00 to 5.00 | 7.22 |
| O=C(c1ccc(Cl)cc1)c1cn(Cc2c[nH]cn2)cc1-c1cccc2ccccc12 [Compound 56] | 4.30 to 6.00 | 5.00 to 7.00 | 4.00 to 5.00 | 7.40 |
| O=C(c1ccc(Cl)cc1Cl)c1cn(Cc2c[nH]cn2)cc1-c1cccc2ccccc12 [Compound 57] | 4.30 to 6.00 | 5.00 to 7.00 | 4.00 to 5.00 | 7.42 |
| O=C(c1ccc(F)cc1)c1cn(Cc2c[nH]cn2)cc1-c1cccc2ccccc12 [Compound 58] | 4.30 to 6.00 | 5.00 to 7.00 | 4.00 to 5.00 | 7.60 |
| O=C(c1ccc(F)cc1F)c1cn(Cc2c[nH]cn2)cc1-c1cccc2ccccc12 [Compound 59] | 4.30 to 6.00 | 5.00 to 7.00 | 4.00 to 5.00 | 6.24 |
| N#Cc1ccc(C(=O)c2cn(Cc3c[nH]cn3)cc2-c2cccc3ccccc23)cc1 [Compound 60] | 4.30 to 6.00 | 5.00 to 7.00 | 4.00 to 5.00 | 6.70 |
| CSCc1ccc(C(=O)c2cn(Cc3c[nH]cn3)cc2-c2cccc3ccccc23)cc1 [Compound 61] | 4.30 to 6.00 | 5.00 to 7.00 | 4.00 to 5.00 | 6.13 |
| CSCCc1ccc(C(=O)c2cn(Cc3c[nH]cn3)cc2-c2cccc3ccccc23)cc1 [Compound 62] | 4.30 to 6.00 | 5.00 to 7.00 | 4.00 to 5.00 | 7.17 |
| CSCCOc1ccc(C(=O)c2cn(Cc3c[nH]cn3)cc2-c2cccc3ccccc23)cc1 [Compound 63] | 4.30 to 6.00 | 5.00 to 7.00 | 4.00 to 5.00 | 6.64 |
| CSCc1cccc(C(=O)c2cn(Cc3c[nH]cn3)cc2-c2cccc3ccccc23)c1 [Compound 64] | 4.30 to 6.00 | 5.00 to 7.00 | 4.00 to 5.00 | 6.80 |
| O=C(c1cccc(-c2ccccc2)c1)c1cn(Cc2c[nH]cn2)cc1-c1cccc2ccccc12 [Compound 65] | 4.30 to 6.00 | 5.00 to 7.00 | 4.00 to 5.00 | 6.38 |
| O=C(c1ccc(-c2ccccc2)cc1)c1cn(Cc2c[nH]cn2)cc1-c1cccc2ccccc12 [Compound 66] | 4.30 to 6.00 | 5.00 to 7.00 | 4.00 to 5.00 | 6.92 |
| O=C(c1ccc(Oc2ccccc2)cc1)c1cn(Cc2c[nH]cn2)cc1-c1cccc2ccccc12 [Compound 67] | 5.52 | 5.00 to 7.00 | < 4.30 | 7.70 |
| O=C(c1ccc(Cc2ccccc2)cc1)c1cn(Cc2c[nH]cn2)cc1-c1cccc2ccccc12 [Compound 68] | 4.30 to 6.00 | 5.00 to 7.00 | 4.00 to 5.00 | 6.92 |
